Data published in article PMC7927021 (Toxins, 2021).
“And” between values parts separate entries of the source, which are not always exact repeats. Equal values may be shown once.

Legend:
Caco-2 cells [1] = assay type: cell-based, human
Caco-2 cells [2] = assay type: cell-based, human; remark: listed apart in the source
[3] = set-up: method as in PMID 21699062; conditions: established by JECFA in 2011; cited from earlier work

| SMILES | Number of KEGG pathways in which DEGs were enriched (Caco-2 cells [1]) | Number of differentially expressed genes (DEGs) (Caco-2 cells [1]) | Concentration range in which viability was significantly/sharply reduced (Caco-2 cells [2]) [µM] | Concentration range of robust decrease in cell viability (Caco-2 cells [2]) [µM] | IC50 (Caco-2 cells [2]) | PMTDI (Provisional Maximum Tolerable Daily Intake) [3] [μg/kg bw per day] |
| --- | --- | --- | --- | --- | --- | --- |
| CC(=O)O[C@@H]1C[C@]2(C)[C@@]3(CO)[C@H](O)C(=O)C(C)=C[C@H]3O[C@H]1[C@@]21CO1 [3-ADON, trichothec-9-en-8-one, 3-(acetyloxy)-12,13-epoxy-7,15-dihydroxy-, (3α,7α)] | 42 | 3132 | 1 to 10 | 2 to 10 | 13.2 µM and 10.8 µM and 7.84 µM |  |
| CC(=O)OC[C@]12[C@H](O)C(=O)C(C)=C[C@H]1O[C@@H]1[C@H](O)C[C@@]2(C)[C@]12CO2 [15-ADON, trichothec-9-en-8-one, 15-(acetyloxy)-12,13-epoxy-3,7-dihydroxy-, (3α,7α)] | 28 | 2425 | 0.2 to 10 | 0.5 to 10 |  |  |
| CC1=C[C@H]2O[C@@H]3[C@H](O)C[C@](C)([C@@]2(CO)[C@H](O)C1=O)[C@]31CO1 [DON, Deoxynivalenol] | 27 | 2656 | 0.2 to 10 | 0.2 to 10 |  | 1 |
